Data on 31 molecules can be found in patent publication US10787444B2, “Compounds for the modulation of myc activity” (Syros Pharmaceuticals, Inc., priority 2015, dated 2020).

Counter-ions that a name gives are not always drawn. Like-named read-outs stand apart in the source and are kept apart here.

Assay [1] deals with T1, c-Myc/Max/Ebox DNA (Homo sapiens, UniProt P01106).
T1 construct: his6 (cleaved yes)
As to the kind of experiment: c-Myc/Max/Ebox DNA AlphaScreen Assay. The format is binding. The conditions noted are these: calculated IC50 class. A digest of the protocol: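 Compounds were preincubated with free c-Myc (20 nM), biotinylated single-Ebox DNA (10 nM) and Ni acceptor beads before his6-Max (5 nM) and streptavidin donor beads were added. Buffer was 50 mM HEPES pH 8.0, 150 mM NaCl, BSA, Tween20, glycogen and DTT, with DMSO ≤2%. After 2 h incubation, AlphaScreen signal was read at 680 nm excitation and 520–620 nm emission.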

Assay [2] deals with human small lung cancer cell line H2171. As to the kind of experiment: Cell Viability Assay (ATPlite). It is filed as cell-based. The conditions noted are these: read-out: H2171 Activity. The method, boiled down: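 H2171 cells were plated at 20,000 cells/mL and dosed immediately by pin transfer with a 10-point dose series in DMSO. After three days at 37° C, ATPlite luminescence served as the viability readout.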
For orientation: In ATP-based viability assays light output follows the ATP content of the culture.

Setting [3] is: Homo sapiens, NCI-H2171, 72 h, Table 2, compounds of FIG. 1, H2171 cells, three days, ATPlite, calculated IC50 class.
[4] abbreviates: Table 2, compounds of FIG. 1, H2171 cells, three days, ATPlite, calculated IC50 class.
Setting [5] is: Homo sapiens, NCI-H2171, 72 h, Table 3, compounds of FIG. 2, H2171 cells, three days, ATPlite, calculated IC50 class.

T1 sequence (P01106 whole entry): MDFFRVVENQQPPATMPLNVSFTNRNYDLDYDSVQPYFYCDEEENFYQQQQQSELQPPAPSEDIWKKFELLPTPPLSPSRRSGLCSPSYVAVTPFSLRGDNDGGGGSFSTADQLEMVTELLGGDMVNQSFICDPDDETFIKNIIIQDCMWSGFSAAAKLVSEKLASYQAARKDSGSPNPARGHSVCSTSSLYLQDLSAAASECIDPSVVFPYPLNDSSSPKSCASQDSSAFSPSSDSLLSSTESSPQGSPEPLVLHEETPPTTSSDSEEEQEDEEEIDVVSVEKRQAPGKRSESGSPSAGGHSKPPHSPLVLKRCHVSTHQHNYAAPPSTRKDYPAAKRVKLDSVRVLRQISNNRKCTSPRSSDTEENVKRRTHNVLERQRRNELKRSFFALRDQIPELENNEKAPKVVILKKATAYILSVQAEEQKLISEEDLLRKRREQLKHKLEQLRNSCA

`COCCNCCC(=O)Nc1sc2c(c1-c1nc3ccc(-c4cnn(C(C)C)c4)cc3s1)CCNC2` [compound 358]: the IC50 is < 300 nM in assay [1] (Table 2, compounds of FIG. 1) and < 300 nM in assay [2] (setting [3]).
For `COCCNCCC(=O)Nc1sc2c(c1-c1nc3ccccc3s1)CC(C)NC2C` (centres unmarked) [Compound 506, N-(3-(Benzo[d]thiazol-2-yl)-5,7-dimethyl-4,5,6,7-tetrahydrothieno[2,3-c]pyridin-2-yl)-3-((2-methoxyethyl)amino)propanamide], the IC50 was 300 to 1000 nM in assay [1] (Table 2, compounds of FIG. 1) and 1000 to 10000 nM in assay [2] (setting [4]).
In the same order, the values of `COCCNCCC(=O)Nc1sc2c(c1-c1nc3ccccc3s1)CC(C)NC2C` (single isomer, unassigned) [Compound 509, N-(3-(Benzo[d]thiazol-2-yl)-5,7-dimethyl-4,5,6,7-tetrahydrothieno[2,3-c]pyridin-2-yl)-3-((2-methoxyethyl)amino)propanamide] are 1000 to 10000 nM and < 300 nM.
Consider `CC(C)NCCC(=O)Nc1sc2c(c1-c1nc3ccc(-c4cccnc4)cc3s1)CCNC2` [compound 193], for which the IC50 in assay [1] (Table 2, compounds of FIG. 1) is < 300 nM; in assay [2] (setting [3]), < 300 nM.
Regarding `CC(=O)Nc1sc2c(c1-c1nc3ccccc3s1)CCC(NCc1ccncc1)C2` (centres unmarked) [Compound 226, N-(3-(benzo[d]thiazol-2-yl)-6-((pyridin-4-ylmethyl)amino)-4,5,6,7-tetrahydrobenzo[b]thiophen-2-yl)acetamide], the IC50 was > 10000 nM in assay [1] (Table 3, compounds of FIG. 2) and < 300 nM in assay [2] (setting [5]).
In the same order, the values of `COC(=O)c1ccc2sc(-c3c(NC(C)=O)sc4c3CCNC4)nc2c1` [Compound 229, Methyl 2-(2-acetamido-4,5,6,7-tetrahydrothieno[2,3-c]pyridin-3-yl)benzo[d]thiazole-5-carboxylate] are 300 to 1000 nM and < 300 nM.
Turning to `COCCNCCC(=O)Nc1sc2c(c1-c1nc3ccc(-c4ccc(C#N)nc4)cc3s1)CCNC2` [compound 391], the IC50 in assay [1] (Table 2, compounds of FIG. 1) was < 300 nM; in assay [2] (setting [3]) it was < 300 nM.
With `COCCNCCC(=O)Nc1sc2c(c1-c1nc3cc(-c4ccncc4)ccc3s1)CCNC2C` (single isomer, unassigned) [Compound 569, 3-((2-Methoxyethyl)amino)-N-(7-methyl-3-(5-(pyridin-4-yl)benzo[d]thiazol-2-yl)-4,5,6,7-tetrahydrothieno[2,3-c]pyridin-2-yl)propanamide], the IC50 is 1000 to 10000 nM in assay [1] (Table 2, compounds of FIG. 1) and 1000 to 10000 nM in assay [2] (setting [4]).
Turning to `CCC(C)NCCC(=O)Nc1sc2c(c1-c1nc3cc(C)c(C)cc3s1)CCNC2` (centres unmarked) [Compound 576, 3-(sec-Butylamino)-N-(3-(5,6-dimethylbenzo[d]thiazol-2-yl)-4,5,6,7-tetrahydrothieno[2,3-c]pyridin-2-yl)propanamide], the IC50 in assay [1] (Table 2, compounds of FIG. 1) is < 300 nM; in assay [2] (setting [3]) it was < 300 nM.
In the case of `CC[C@H](C)NCCC(=O)Nc1sc2c(c1-c1nc3cc(C(F)(F)F)ccc3s1)CC(C)NC2C` (single isomer, unassigned) [Compound 585], the IC50 in assay [1] (Table 2, compounds of FIG. 1) was < 300 nM; in assay [2] (setting [4]), < 300 nM.
For `COCCNCCC(=O)Nc1sc2c(c1-c1nc3ccccc3s1)CC(C)NC2C` (centres unmarked) [Compound 315, N-(3-(Benzo[d]thiazol-2-yl)-5,7-dimethyl-4,5,6,7-tetrahydrothieno[2,3-c]pyridin-2-yl)-3-((2-methoxyethyl)amino)propanamide], the IC50 in assay [1] (Table 2, compounds of FIG. 1) was 300 to 1000 nM; in assay [2] (setting [4]) it was < 300 nM.
On to `CC(C)NCCC(=O)Nc1sc2c(c1-c1nc3ccccc3s1)CC(C)NC2C` (single isomer, unassigned) [Compound 198, N-(3-(benzo[d]thiazol-2-yl)-5,7-dimethyl-4,5,6,7-tetrahydrothieno[2,3-c]pyridin-2-yl)-3-(isopropylamino)propanamide], for which the IC50 was 1000 to 10000 nM in assay [1] (Table 2, compounds of FIG. 1) and < 300 nM in assay [2] (setting [4]).
Take `CC(C)NCCC(=O)Nc1sc2c(c1-c1nc3ccccc3s1)CC(C)NC2C` (single isomer, unassigned) [Compound 197, N-(3-(benzo[d]thiazol-2-yl)-5,7-dimethyl-4,5,6,7-tetrahydrothieno[2,3-c]pyridin-2-yl)-3-(isopropylamino)propanamide]: the IC50 was 1000 to 10000 nM in assay [1] (Table 2, compounds of FIG. 1) and 300 to 1000 nM in assay [2] (setting [4]).
Take `COCCNCCC(=O)Nc1sc2c(c1-c1nc3cc(-c4cnc(N)nc4)ccc3s1)CCNC2` [compound 345]: the IC50 was < 300 nM in assay [1] (Table 2, compounds of FIG. 1) and < 300 nM in assay [2] (setting [3]).
Regarding `COCCNCCC(=O)Nc1sc2c(c1-c1nc3c(C(F)(F)F)cccc3s1)CCNC2` [compound 611], the IC50 in assay [1] (Table 2, compounds of FIG. 1) was < 300 nM; in assay [2] (setting [3]), < 300 nM.
In the case of `CCC(C)NCCC(=O)Nc1sc2c(c1-c1nc3cc(-n4cnc(C)c4)ccc3s1)CCNC2` (centres unmarked) [compound 149], the IC50 in assay [1] (Table 2, compounds of FIG. 1) is < 300 nM; in assay [2] (setting [3]) it was < 300 nM.
For the molecule `COCCNCCC(=O)Nc1sc2c(c1-c1nc3c(NC4COC4)cccc3s1)CCNC2` [compound 600], the IC50 in assay [1] (Table 2, compounds of FIG. 1) was < 300 nM; in assay [2] (setting [3]) it was < 300 nM.
Turning to `CCC(C)NCCC(=O)Nc1sc2c(c1-c1nc3cc(-c4cn[nH]c4)ccc3s1)CCNC2` (centres unmarked) [compound 151], the IC50 is < 300 nM in assay [1] (Table 2, compounds of FIG. 1) and < 300 nM in assay [2] (setting [3]).
For the molecule `Cc1cn(-c2ccc3nc(-c4c(NC(=O)CCNC(C)C)sc5c4CCNC5)sc3c2)cn1` [compound 186], the IC50 in assay [1] (Table 2, compounds of FIG. 1) was < 300 nM; in assay [2] (setting [3]) it was < 300 nM.
For `CC(C)NCCC(=O)Nc1sc2c(c1-c1nc3cc(N4CCOCC4)ccc3s1)CCNC2` [compound 302], the IC50 in assay [1] (Table 2, compounds of FIG. 1) is < 300 nM; in assay [2] (setting [3]), < 300 nM.
For the molecule `CC(=O)Nc1sc2c(c1-c1nc3ccccc3s1)CCC(NC1CCOCC1)C2` (centres unmarked) [Compound 231, N-(3-(benzo[d]thiazol-2-yl)-6-((tetrahydro-2H-pyran-4-yl)amino)-4,5,6,7-tetrahydrobenzo[b]thiophen-2-yl)acetamide], the IC50 in assay [1] (Table 3, compounds of FIG. 2) is 1000 to 10000 nM; in assay [2] (setting [5]) it was < 300 nM.
Turning to `CC(C)NCCC(=O)Nc1sc2c(c1-c1nc3cc(-c4ccc(S(C)(=O)=O)cc4)ccc3s1)CCNC2` [compound 181], the IC50 in assay [1] (Table 2, compounds of FIG. 1) was < 300 nM; in assay [2] (setting [3]), < 300 nM.
Take `COCCNCCC(=O)Nc1sc2c(c1-c1nc3ccccc3s1)CC(C)NC2C` (centres unmarked) [Compound 507, N-(3-(Benzo[d]thiazol-2-yl)-5,7-dimethyl-4,5,6,7-tetrahydrothieno[2,3-c]pyridin-2-yl)-3-((2-methoxyethyl)amino)propanamide]: the IC50 in assay [1] (Table 2, compounds of FIG. 1) is 300 to 1000 nM; in assay [2] (setting [4]), < 300 nM.
As to `CC(=O)Nc1sc2c(c1-c1nc3ccccc3s1)C[C@H](C)N[C@@H]2C` [Compound 219, N-((5S,7R)-3-(benzo[d]thiazol-2-yl)-5,7-dimethyl-4,5,6,7-tetrahydrothieno[2,3-c]pyridin-2-yl)acetamide], the IC50 in assay [1] (Table 3, compounds of FIG. 2) was 1000 to 10000 nM; in assay [2] (setting [5]), < 300 nM.
`COCCN(CCOC)CCC(=O)Nc1sc2c(c1-c1nc3ccccc3s1)CCNC2` [Compound 309, N-(3-(benzo[d]thiazol-2-yl)-4,5,6,7-tetrahydrothieno[2,3-c]pyridin-2-yl)-3-(bis(2-methoxyethyl)amino)propanamide]: the IC50 in assay [1] (Table 2, compounds of FIG. 1) is > 10000 nM; in assay [2] (setting [3]), < 300 nM.
Take `CCC(C)NCCC(=O)Nc1sc2c(c1-c1nc3cc(F)ccc3s1)CCNC2` (centres unmarked) [Compound 123, 3-(sec-butylamino)-N-(3-(5-fluorobenzo[d]thiazol-2-yl)-4,5,6,7-tetrahydrothieno[2,3-c]pyridin-2-yl) propanamide]: the IC50 in assay [1] (Table 2, compounds of FIG. 1) is < 300 nM; in assay [2] (setting [3]), < 300 nM.
As for `COCCNCCC(=O)Nc1sc2c(c1-c1nc3cc(-c4cnn(C)c4)ccc3s1)CC(C)NC2C` (single isomer, unassigned) [Compound 567, N-(5,7-Dimethyl-3-(5-(1-methyl-1H-pyrazol-4-yl)benzo[d]thiazol-2-yl)-4,5,6,7-tetrahydrothieno[2,3-c]pyridin-2-yl)-3-((2-methoxyethyl)amino)propanamide], the IC50 is 1000 to 10000 nM in assay [1] (Table 2, compounds of FIG. 1) and < 300 nM in assay [2] (setting [4]).
Turning to `CC(=O)Nc1sc2c(c1-c1nc3ccccc3s1)C(F)CN(C(C)C)C2` (centres unmarked) [Compound 220, N-(3-(benzo[d]thiazol-2-yl)-4-fluoro-6-isopropyl-4,5,6,7-tetrahydrothieno[2,3-c]pyridin-2-yl) acetamide], the IC50 in assay [1] (Table 3, compounds of FIG. 2) is 1000 to 10000 nM; in assay [2] (Homo sapiens, NCI-H2171, 72 h) it was > 10000 nM.
As to `COCCNCCC(=O)Nc1sc2c(c1-c1nc3cc(-c4cnn(C)c4)ccc3s1)CC(C)NC2C` (single isomer, unassigned) [Compound 566, N-(5,7-Dimethyl-3-(5-(1-methyl-1H-pyrazol-4-yl)benzo[d]thiazol-2-yl)-4,5,6,7-tetrahydrothieno[2,3-c]pyridin-2-yl)-3-((2-methoxyethyl)amino)propanamide], the IC50 was 1000 to 10000 nM in assay [1] (Table 2, compounds of FIG. 1) and < 300 nM in assay [2] (setting [4]).
Take `CCC(C)NCCC(=O)Nc1sc2c(c1-c1nc3cc(-c4ccncc4)ccc3s1)CCNC2C` [Compound 590, 3-(((S)-sec-butyl)amino)-N—((R)-7-methyl-3-(5-pyridin-4-yl)benzo[d]thiazol-2-yl)-4,5,6,7-tetrahydrothieno[2,3-c]pyridin-2-yl)propanamide]: the IC50 in assay [1] (Table 2, compounds of FIG. 1) was < 300 nM; in assay [2] (setting [3]), < 300 nM.
`CC(C)NCCC(=O)Nc1sc2c(c1-c1nc3cc(-c4ccncc4)ccc3s1)CCNC2` [Compound 160, 3-(Isopropylamino)-N-(3-(5-(pyridin-4-yl)benzo[d]thiazol-2-yl)-4,5,6,7-tetrahydrothieno[2,3-c]pyridin-2-yl)propanamide dihydrochloride]: the IC50 in assay [1] (Table 2, compounds of FIG. 1) was 300 to 1000 nM; in assay [2] (setting [3]) it was 300 to 1000 nM.
